Source: patent US12234486B2, “Modular, microfluidic, mechanically active bioreactor for 3D, multi-tissue, tissue culture” (University of Pittsburgh—Of the Commonwealth System of …, priority 2013, dated 2025)

Test system: chondrocytes in the cartilage chamber
Test: RT-PCR marker expression in cartilage (top) chamber of bioreactor after hormone supply
Type: cell-based
Conditions: progesterone progressively added to estradiol, week 3 and 4 (10 nM, 50 nM), higher when hormones directly applied to cartilage
Procedure: FIGS. 17-20 are graphs that show differential expression of markers (as determined by RT-PCR) for a control medium that contained no estrogen or progesterone (first bar), and then different concentrations of hormones supplied to one or the other of the bioreactor chambers during week 1 (w1: 0.1 nM estradiol), week 2 (w2: 1 nM estradiol), week 3 (w3: 1 nM estradiol and 10 nM progesterone), and week 4 (w4: 0.1 nM estradiol and 50 nM progesterone). […] FIGS. 17-18 show differential expression of markers (as determined by RT-PCR) for a control medium that contained no estrogen or progesterone (first bar), and then different concentrations of hormones supplied to the chambers during week 1 (w1: 0.1 nM estradiol), week 2 (w2: 1 nM estradiol), week 3 (w3: 1 nM estradiol and 10 nM progesterone), and week 4 (w4: 0.1 nM estradiol and 50 nM progesterone).

SMILES: CC(=O)[C@H]1CC[C@H]2[C@@H]3CCC4=CC(=O)CC[C@]4(C)[C@H]3CC[C@]12C [progesterone]
- cartilage anabolic markers (Sox9, Aggrecan): downregulation is still present
